Literature values in patent publication US11285134B2, “Presbyopia treatments” (Allergan, Inc., priority 2018, dated 2022).
Read-outs that look alike come from different tables or passages of the source.

System: patients with glaucoma
Conditions: 1-week treatment

SMILES: CC[C@@H]1C(=O)OC[C@@H]1Cc1cncn1C [pilocarpine]
- mean percent fall in IOP from baseline (1% dose strength): 17.5%
- mean percent fall in IOP from baseline (4% dose strength): 26.8%
- mean percent fall in IOP from baseline (8% dose strength): 29.1%
